According to patent US8916542B2, “Chitosan derivatives, compositions and related methods of use” (Synedgen, Inc., priority 2008, dated 2014):
Where two headings read alike, the source gives them in different places.

Assays:
[1] = tested on: Pseudomonas aeruginosa, PA01; assay: MIC of antibiotics with added chitosan-arginine (live/dead checkerboard); type: cell-based; settings: for factor of decrease of MIC: addition of 4 μg/ml chitosan-arginine
Procedure: The assay was conducted as follows. In each case, the minimum inhibitory concentration (MIC) in μg/ml was determined for the antibiotic alone against Pseudomonas aeruginosa.

[2] = tested on: Mupirocin and Methicilin resistant Staphylcoccus aureus (MMRSA, 2-4C strain); assay: Checkerboard time course assay (vCFU) in water; type: cell-based, Staphylococcus aureus
Procedure: (§1) The plate was allowed to sit for 24 hours, before being centrifuged at 4000 RPM for 10 minutes, and resuspended in an appropriate enriched growth media (LB or Todd Hewitt Broth). The optical density of the plate was read over the course of 24 hours at 37° C. The optical density readings were used to compute a time to an arbitrary threshold of 0.25, which is correlated using a growth curve for this MMRSA, to virtual colony forming (vCFU) counts.

MMRSA = assay: Sensitization summary: MMRSA to Mupirocin; type: cell-based, Staphylococcus aureus; settings: Mupirocin resistance breakpoint 8 μg/mL
Procedure: (§2) By definition, resistance is defined by a “resistance breakpoint” above which a bacterium is considered resistant (and is related to side effects and toxicity).
as §1

[3] = tested on: MRSA strain MW-2 (ATCC BAA-1707); assay: Chitosan-arginine/Oxacillin checkerboard growth inhibition assay; type: cell-based, Staphylococcus aureus; settings: chitosan-arginine 1 μg/mL alone or Oxacillin 0.78 μg/mL alone
Procedure: Approximately 10^5 cells was added to each of the wells. The optical density of the plate was read over the course of 24 hours at 37° C.

[4] = tested on: MRSA strain MW-2 (ATCC BAA-1707); assay: Checkerboard vCFU assay chitosan-arginine and Oxacillin in PBS; type: cell-based, Staphylococcus aureus; settings: alone
Procedure: Approximately 10^6 cells/mL were added to each well. Incubation occurred at ambient temperature for 20 h, then bacteria were centrifuged and resuspended in an appropriate growth media. The optical density (OD) was read over the course of 18 h at 37° C. The time (in seconds) to an arbitrary threshold OD of 0.15 was used with reference to a growth curve, to calculate the initial bacterial concentration of bacteria (vCFU).

[5] = tested on: MRSA strain MW-2 (ATCC BAA-1707); assay: Standard checkerboard assay in Mueller Hinton media, chitosan-arginine and Oxacillin; type: cell-based; settings: Staphylococcus aureus
Procedure: Bacteria were incubated at 37° C. for the standard 20 hours. MRSA MIC values were obtained by OD595 (optical density). The entire experiment was repeated three times.

MRSA = assay: Sensitization summary: MRSA to Oxacillin; type: cell-based, Staphylococcus aureus
Procedure: as §2
(§3) Approximately 10^5 cells were added to each of the wells. […] Optical density readings of the plate were taken, and averaged to determine inhibited samples Inhibition is defined by the final optical density (OD) being less than or equal to ½ the control OD.

[6] = tested on: P. aeuriginosa strain PA01 (ATCC BAA-47); assay: Checkerboard assay chitosan-arginine and Tobramycin; type: cell-based; settings: Pseudomonas aeruginosa, ATCCBAA47, read-out: Tobramycin (MIC), alone; determined alongside each C/A lot
Procedure: Bacteria were incubated at 37° C. for the standard 20 hours.
P. aeuriginosa produces the fluorescent pigment pyocyanin, which can be correlated with bacterial growth.

[7] = tested on: VRE (Vancomycin resistant Enterococcus); assay: Sensitization summary: VRE to Vancomycin; type: cell-based, Enterococcus faecium; settings: for Antibiotic concentration (MIC) in presence of chitosan-arginine: 24 hour treatment
Excerpt: as §2

A. baumannii = assay: Sensitization summary: A. baumannii to Gentamicin; type: cell-based, Acinetobacter baumannii
Excerpt: as §2

K. pneumoniae = assay: Sensitization summary: K. pneumoniae to Gentamicin; type: cell-based, Klebsiella pneumoniae
Procedure: as §2, §3

[8] = 0 μg/ml chitosan-arginine added (antibiotic alone)
[9] = 0.5 μg/ml chitosan-arginine added
[10] = 1 μg/ml chitosan-arginine added
[11] = 2 μg/ml chitosan-arginine added
[12] = 4 μg/ml chitosan-arginine added, * = lowest value measured
[13] = with chitosan-arginine 0.125 μg/mL, 24 hour treatment

Row | Compound | MIC of antibiotic [1, 8] [µg/mL] | MIC of antibiotic [1, 9] [µg/mL] | MIC of antibiotic [1, 10] [µg/mL] | MIC of antibiotic [1, 11] | factor of decrease of MIC [1] | MIC of antibiotic [1, 12] | other results
1 | O=C(O)c1cn(C2CC2)c2cc(N3CCNCC3)c(F)cc2c1=O [Ciprofloxacin] | 2 | 1 | 1 | .5 µg/mL | ≥ 80 |  | 
2 | C/C(=C\C(=O)OCCCCCCCCC(=O)O)C[C@@H]1OC[C@H](C[C@@H]2O[C@H]2[C@@H](C)[C@H](C)O)[C@@H](O)[C@H]1O [Mupirocin] |  |  |  |  |  |  | effect of mupirocin alone on MMRSA ([2]; 1 μg/mL): completely ineffective; antibacterial effectiveness of Mupirocin alone ([2]; doses below 64 to 128 μg/mL): ineffective; mupirocin concentration at which MMRSA is sensitive ([2]; mupirocin alone, 24 hours in water): 128 µg/mL; lowest Mupirocin dose to which MMRSA is sensitized ([2]; with 4 μg/mL chitosan-arginine): 8 µg/mL; MIC of antibiotic alone against resistant bacteria (MMRSA): MMRSA (>64) μg/mL
3 | Cc1onc(-c2ccccc2)c1C(=O)N[C@@H]1C(=O)N2[C@@H]1SC(C)(C)[C@@H]2C(=O)O [Oxacillin] |  |  |  |  |  |  | effect on growth of the bacteria, agent alone [3]: Neither antimicrobial alone had a significant an effect; bactericidal concentration [4]: > 6.25 µg/mL; MIC ([5]; read-out: MIC of Oxa alone): 4 µg/mL; MIC ([5]; read-out: MIC of Oxa with C/A): 1 µg/mL; MIC of antibiotic alone against resistant bacteria (MRSA; MRSA, Oxacillin resistance breakpoint 4 μg/mL): MRSA (>25) μg/mL; Antibiotic concentration (MIC) in presence of chitosan-arginine (MRSA; with chitosan-arginine 4 μg/mL, 24 hour treatment): 0.2 µg/mL
4 | CO[C@H]1/C=C/O[C@@]2(C)Oc3c(C)c(O)c4c(O)c(c(/C=N/N5CCN(C)CC5)c(O)c4c3C2=O)NC(=O)/C(C)=C\C=C\[C@H](C)[C@H](O)[C@@H](C)[C@@H](O)[C@@H](C)[C@H](OC(C)=O)[C@@H]1C [Rifampicin] | 8 | 4 | 2 | 1 µg/mL | 16 | 0.5 µg/mL | 
5 | [Ag] [Silver] | 0.042 | 0.021 | 0.021 | 0.005 µg/mL | ≥ 40 | ≤ 0.001* μg/ml | 
6 | NC[C@H]1O[C@H](O[C@H]2[C@H](O)[C@@H](O[C@H]3O[C@H](CO)[C@@H](O)[C@H](N)[C@H]3O)[C@H](N)C[C@@H]2N)[C@H](N)C[C@@H]1O [Tobramycin] |  |  |  |  |  |  | MIC [6]: 0.5 µg/mL
7 | CN[C@H](CC(C)C)C(=O)N[C@H]1C(=O)N[C@@H](CC(N)=O)C(=O)N[C@H]2C(=O)N[C@H]3C(=O)N[C@H](C(=O)N[C@H](C(=O)O)c4cc(O)cc(O)c4-c4cc3ccc4O)[C@H](O)c3ccc(c(Cl)c3)Oc3cc2cc(c3O[C@@H]2O[C@H](CO)[C@@H](O)[C@H](O)[C@H]2O[C@H]2C[C@](C)(N)[C@H](O)[C@H](C)O2)Oc2ccc(cc2Cl)[C@H]1O [Vancomycin] |  |  |  |  |  |  | MIC of antibiotic alone against resistant bacteria ([7]; VRE, Vancomycin resistance breakpoint 32 μg/mL): VRE (>32) μg/mL; Antibiotic concentration (MIC) in presence of chitosan-arginine ([7]; with chitosan-arginine 2 μg/mL): 2 µg/mL; Antibiotic concentration (MIC) in presence of chitosan-arginine ([7]; with chitosan-arginine 4 μg/mL): 12.5 µg/mL
8 | Gentamicin |  |  |  |  |  |  | MIC of antibiotic alone against resistant bacteria (A. baumannii; A. baumannii, Gentamicin resistance breakpoint 64 μg/mL): A. baumannii (64) μg/mL; Antibiotic concentration (MIC) in presence of chitosan-arginine (A. baumannii; [13]): 16 µg/mL; MIC of antibiotic alone against resistant bacteria (K. pneumoniae; K. pneumoniae, Gentamicin resistance breakpoint 64 μg/mL): K. pneumoniae (64) μg/mL; Antibiotic concentration (MIC) in presence of chitosan-arginine (K. pneumoniae; [13]): 16 µg/mL
9 | Neomycin | 8 | 4 | 2 | 1 µg/mL | 16 | 0.5 µg/mL | 
